From ChEMBL document CHEMBL3045943, “Novel N-aryl(alkaryl)-2-[(3-R-2-oxo-2H-[1,2,4]triazino[2,3-c]quinazoline-6-yl)thio]acetamides: synthesis, cytotoxicity, anticancer activity, COMPARE analysis and docking” (2013)

Columns and labels:
Type in all cases: functional
[1] = test system: Photobacterium leiognathi; test: Growth inhibition of Photobacterium leiognathi Sh1 assessed as bio-luminescence at 0.1 mg/ml after 16 to 18 hr by chronic action test relative to control; design: scale not given: the % may be the effect or the level left
HCT-116 = test: Cytotoxicity against Homo sapiens (human) HCT116 cells assessed as cell growth at 10 uM after 48 hr by SRB assay relative to control; settings: HCT-116, 48 h, read-out: Activity
[2] = test system: Photobacterium leiognathi; test: Growth inhibition of Photobacterium leiognathi Sh1 assessed as bio-luminescence at 0.025 mg/ml after 10 min by acute action test relative to control; design: scale not given: the % may be the effect or the level left
[3] = test system: Photobacterium leiognathi; test: Growth inhibition of Photobacterium leiognathi Sh1 assessed as bio-luminescence at 0.25 mg/ml after 16 to 18 hr by chronic action test relative to control; design: scale not given: the % may be the effect or the level left
HL-60(TB) = test: Cytotoxicity against Homo sapiens (human) HL-60(TB) cells assessed as cell growth at 10 uM after 48 hr by SRB assay relative to control; settings: HL-60, 48 h, read-out: Activity
[4] = test system: Photobacterium leiognathi; test: Growth inhibition of Photobacterium leiognathi Sh1 assessed as bio-luminescence at 0.025 mg/ml after 16 to 18 hr by chronic action test relative to control; design: scale not given: the % may be the effect or the level left
K562 = test: Cytotoxicity against Homo sapiens (human) K562 cells assessed as cell growth at 10 uM after 48 hr by SRB assay relative to control; settings: K562, 48 h, read-out: Activity
[5] = test system: Photobacterium leiognathi; test: Growth inhibition of Photobacterium leiognathi Sh1 assessed as bio-luminescence at 0.1 mg/ml after 10 min by acute action test relative to control; design: scale not given: the % may be the effect or the level left
[6] = Cytotoxicity against Homo sapiens (human) […] cells assessed as cell growth at 10 uM after 48 hr by SRB assay relative to control; settings: read-out: Activity
CCRF-CEM = test: Cytotoxicity against Homo sapiens (human) CCRF-CEM cells assessed as cell growth at 10 uM after 48 hr by SRB assay relative to control; settings: read-out: Activity
HCT-15 = test: Cytotoxicity against Homo sapiens (human) HCT15 cells assessed as cell growth at 10 uM after 48 hr by SRB assay relative to control; settings: HCT-15, 48 h, read-out: Activity
HT-29 = test: Cytotoxicity against Homo sapiens (human) HT-29 cells assessed as cell growth at 10 uM after 48 hr by SRB assay relative to control; settings: HT-29, 48 h, read-out: Activity
SW-620 = test: Cytotoxicity against Homo sapiens (human) SW620 cells assessed as cell growth at 10 uM after 48 hr by SRB assay relative to control; settings: SW-620, 48 h, read-out: Activity
MOLT-4 = test: Cytotoxicity against Homo sapiens (human) MOLT4 cells assessed as cell growth at 10 uM after 48 hr by SRB assay relative to control; settings: MOLT-4, 48 h, read-out: Activity
[7] = test system: Photobacterium leiognathi; test: Growth inhibition of Photobacterium leiognathi Sh1 assessed as bio-luminescence at 0.25 mg/ml after 10 min by acute action test relative to control; design: scale not given: the % may be the effect or the level left
SR = test: Cytotoxicity against Homo sapiens (human) SR cells assessed as cell growth at 10 uM after 48 hr by SRB assay relative to control; settings: read-out: Activity
KM12 = test: Cytotoxicity against Homo sapiens (human) KM12 cells assessed as cell growth at 10 uM after 48 hr by SRB assay relative to control; settings: KM12, 48 h, read-out: Activity
A498 = test: Cytotoxicity against Homo sapiens (human) A498 cells after 48 hr by SRB assay; settings: A498, 48 h
HOP-62 = test: Cytotoxicity against Homo sapiens (human) HOP62 cells after 48 hr by SRB assay; settings: HOP-62, 48 h
A549 = test: Cytotoxicity against Homo sapiens (human) A549 cells assessed as cell growth at 10 uM after 48 hr by SRB assay relative to control; settings: A549, 48 h, read-out: Activity
BT-549 = test: Cytotoxicity against Homo sapiens (human) BT549 cells after 48 hr by SRB assay; settings: BT-549, 48 h
MDA-MB-435 = test: Cytotoxicity against Homo sapiens (human) MDA-MB-435 cells assessed as cell growth at 10 uM after 48 hr by SRB assay relative to control; settings: MDA-MB-435, 48 h, read-out: Activity
OVCAR-3 = test: Cytotoxicity against Homo sapiens (human) OVCAR3 cells assessed as cell growth at 10 uM after 48 hr by SRB assay relative to control; settings: OVCAR-3, 48 h, read-out: Activity
HOP-92 = test: Cytotoxicity against Homo sapiens (human) HOP92 cells assessed as cell growth at 10 uM after 48 hr by SRB assay relative to control; settings: HOP-92, 48 h, read-out: Activity
U-251 = test: Cytotoxicity against Homo sapiens (human) U251 cells assessed as cell growth at 10 uM after 48 hr by SRB assay relative to control; settings: U-251, 48 h, read-out: Activity
SNB-75 = test: Cytotoxicity against Homo sapiens (human) SNB75 cells after 48 hr by SRB assay; settings: SNB-75, 48 h
DU-145 = test: Cytotoxicity against Homo sapiens (human) DU145 cells assessed as cell growth at 10 uM after 48 hr by SRB assay relative to control; settings: DU-145, 48 h, read-out: Activity
LOX IMVI = test: Cytotoxicity against Homo sapiens (human) LOXIMVI cells assessed as cell growth at 10 uM after 48 hr by SRB assay relative to control; settings: read-out: Activity
SF-295 = test: Cytotoxicity against Homo sapiens (human) SF295 cells assessed as cell growth at 10 uM after 48 hr by SRB assay relative to control; settings: SF-295, 48 h, read-out: Activity
PC-3 = test: Cytotoxicity against Homo sapiens (human) PC3 cells assessed as cell growth at 10 uM after 48 hr by SRB assay relative to control; settings: PC-3, 48 h, read-out: Activity
UO-31 = test: Cytotoxicity against Homo sapiens (human) UO31 cells after 48 hr by SRB assay; settings: UO-31, 48 h
786-0 = test: Cytotoxicity against Homo sapiens (human) 786-0 cells assessed as cell growth at 10 uM after 48 hr by SRB assay relative to control; settings: 786-0, 48 h, read-out: Activity
SF-268 = test: Cytotoxicity against Homo sapiens (human) SF268 cells assessed as cell growth at 10 uM after 48 hr by SRB assay relative to control; settings: SF-268, 48 h, read-out: Activity
NCI-H460 = test: Cytotoxicity against Homo sapiens (human) NCI-H460 cells assessed as cell growth at 10 uM after 48 hr by SRB assay relative to control; settings: NCI-H460, 48 h, read-out: Activity

COc1ccc(-c2nn3c(SCC(=O)Nc4ccccc4F)nc4ccccc4c3nc2=O)cc1
Activity [1]: 96.67%
growth at 10 µM (HCT-116): 56.7%
Activity [2]: 90%
Activity [3]: 100%
growth at 10 µM (HL-60(TB)): 67.9%
Activity [4]: 100%
growth at 10 µM (K562): 60.2%
Activity [5]: 84%
growth at 10 µM [6]: 67.6%
growth at 10 µM (CCRF-CEM): 67.5%
growth at 10 µM (HCT-15): 92.2%
growth at 10 µM (HT-29): 67.8%
growth at 10 µM (SW-620): 65.6%
growth at 10 µM (MOLT-4): 52.7%
Activity [7]: 40%
growth at 10 µM (SR): 48.2%
growth at 10 µM (KM12): 51.3%

O=C(CSc1nc2ccccc2c2nc(=O)c(-c3ccccc3)nn12)NCc1ccccc1
GI50 (A498): 0.0269 µM
LC50 (A498): > 100 µM
TGI (A498; read-out: pTGI (converted)): 37.2 µM
Activity [1]: 113.6%
growth at 10 µM (HCT-116): 48.6%
Activity [2]: 125%
GI50 (HOP-62): 2.75 µM
LC50 (HOP-62): 30.2 µM
TGI (HOP-62; read-out: pTGI (converted)): 7.08 µM
Activity [3]: 78.2%
growth at 10 µM (HL-60(TB)): 51.6%
growth at 10 µM (A549): 12.8%
GI50 (BT-549): 3.02 µM
LC50 (BT-549): > 100 µM
TGI (BT-549; read-out: pTGI (converted)): 7.76 µM
growth at 10 µM (MDA-MB-435): 21.7%
growth at 10 µM (OVCAR-3): 13.7%
growth at 10 µM (HOP-92): 24.6%
growth at 10 µM (U-251): 30.1%
Activity [4]: 84.9%
growth at 10 µM (K562): 29.7%
GI50 (SNB-75): 2.19 µM
LC50 (SNB-75): 43.7 µM
TGI (SNB-75; read-out: pTGI (converted)): 13.5 µM
growth at 10 µM (DU-145): 21.8%
Activity [5]: 112.5%
growth at 10 µM (LOX IMVI): 29.5%
growth at 10 µM [6]: 44.5%
growth at 10 µM (CCRF-CEM): 37.9%
growth at 10 µM (SW-620): 19.4%
growth at 10 µM (SF-295): 55.7%
growth at 10 µM (MOLT-4): 43%
Activity [7]: 100%
growth at 10 µM (PC-3): 18.1%
growth at 10 µM (SR): 41.9%
GI50 (UO-31): 2.57 µM
LC50 (UO-31): > 100 µM
TGI (UO-31; read-out: pTGI): > 100 µM
growth at 10 µM (KM12): 12%
growth at 10 µM (786-0): -7.56%
growth at 10 µM (SF-268): 53.1%
growth at 10 µM (NCI-H460): 1.57%
